Key:
[1] = tested on: A549-xenografted tumors; test: A549 xenograft nude mouse model; details: cisplatin 5 mg/kg intravenous
Experimental: The body weights of mice and their tumor sizes were measured twice a week. Cisplatin was used as internal control.
The four-week-old female Balb/c nu/nu mice were bought from Orient Bio (Sungnam, Republic of Korea) and maintained for two weeks at 25 ± 2 °C in 50 ± 5% relative humidity with 12 h dark/light cycles. Then, 5 × 10^6 A546 human lung cancer cells mixed with Matrigel were injected subcutaneously into the right dorsal area. […] The body weights and tumor sizes of the mice were measured twice a week for five weeks. […] The tumor volume in each mouse was determined using the following formula: tumor volume (mm^3) = length × width^2 × 0.5.

[2] = tested on: HaCaT cells; test: MTT cell viability assay; details: 24 h treatment, absorbance 530 nm
Experimental: (§1) Then, the cells were further incubated for 4 h in the dark after adding MTT reagent. After incubation, formed formazan crystal was dissolved. The absorbance of the solubilized formazan was measured at 530 nm to determine cell viability of each AMP.
(§2) A549 human lung cancer cells, MDA-MB-231 triple-negative human breast cancer cells, HT-29 human colorectal adenocarcinoma, Panc-1 human pancreatic cancer cell line, and Caco2 human epithelial cell line were purchased from the Korean Cell Line Bank (Seoul, Republic of Korea). HaCaT human keratinocytes were gifted by Professor Su-Kyung Kim (Department of Pharmacology, Keimyung University School of Medicine). The cells were routinely grown in Dulbecco’s Modified Eagle Medium supplemented with 10% fetal bovine serum and 1% antimycotic/antibiotic solution at 37 °C in an atmosphere containing 5% CO2.
(§3) 1 × 10^4 cells were seeded into each well in a 96-well plate and attached for 24 h at 37 °C. […] The medium was removed, and the cells were incubated for 4 h in the dark after adding 50 μL of MTT reagent (Sigma-Aldrich; Merck KGaA, Darmstadt, Germany) in an each well.

[3] = tested on: Caco-2 cells; test: MTT cell viability assay; details: Caco-2, 24 h treatment, absorbance 530 nm
Experimental: as §1, §2, §3

[4] = tested on: cancer and normal cells; test: AV/PI flow cytometric analysis, positive control; format: cell-based, human; details: 24 h, AV/PI staining
Experimental: 5 × 10^5/well cells were plated into 6-well plates and incubated at 37 °C with 5% CO2 for 24 h to allow adhesion. […] The conditioned medium was collected into a 15 mL conical tube to retrieve the floating cells, while adherent cells were detached using trypsin. The floating cells in the collected medium were combined with the detached adherent cells and centrifuged for 2 min at 3000 rpm at 4 °C to collect the cells. The cell pellet was resuspended using 1x binding buffer containing AV and PI and incubated for 30 min at 37 °C. The cells were analyzed using a CytoFLEX Flow Cytometer (Beckman Coulter, Brea, CA, USA).

[5] = tested on: human red blood cells (RBCs); test: Hemolysis assay; format: cell-based; details: human RBCs in PBS, 37 °C, 1 h, absorbance 405 nm, relative to 1% Triton X-100
Experimental: This study was approved by the Institutional Review Board of Dongguk University (No.: DGU IRB 20200007-01). RBCs were prepared from human blood obtained from the Korean Red Cross by centrifugation at 2000 rpm for 30 min at 10 °C, followed by pellet collection. RBC pellets were washed by resuspending in phosphate-buffered saline (PBS) and centrifugation at 2000 rpm for 30 min at 10 °C thrice. Subsequently, RBCs were resuspended in PBS and 50 μL/well of RBC solution was loaded into a 96-well plate. […] Finally, the absorbance of the supernatant was measured at 405 nm using an Epoch ELISA Reader. […] All the absorbance values were normalized to those of PBS.

N.N.[Cl][Pt][Cl] [cisplatin]
body weight [1]: significant body weight loss | tumor growth ([1]; twice in the first week, start at about 400 mm^3): effectively suppressed

CC[C@H](C)[C@H](NC(=O)CN)C(=O)NCC(=O)N[C@@H](C)C(=O)N[C@H](C(=O)N[C@@H](CC(C)C)C(=O)N[C@@H](CCCCN)C(=O)N[C@H](C(=O)N[C@@H](CC(C)C)C(=O)N[C@H](C(=O)N[C@H](C(=O)NCC(=O)N[C@@H](CC(C)C)C(=O)N1CCC[C@H]1C(=O)N[C@@H](C)C(=O)N[C@@H](CC(C)C)C(=O)N[C@H](C(=O)N[C@@H](CO)C(=O)N[C@@H](Cc1c[nH]c2ccccc12)C(=O)N[C@H](C(=O)N[C@@H](CCCCN)C(=O)N[C@@H](CCCNC(=N)N)C(=O)N[C@@H](CCCCN)C(=O)N[C@@H](CCCNC(=N)N)C(=O)N[C@@H](CCC(N)=O)C(=O)N[C@@H](CCC(N)=O)C(N)=O)[C@@H](C)CC)[C@@H](C)CC)[C@@H](C)O)[C@@H](C)O)C(C)C)C(C)C [melittin]
concentration showing cytotoxicity [2]: ≥ 8000 ng/mL | concentration showing cytotoxicity [3]: ≥ 8000 ng/mL | cytotoxicity in cancer and normal cells [4]: high cytotoxicity | concentration showing hemolytic activity [5]: exceeding 8 μg/mL

From PMC12429151 (International Journal of Molecular Sciences, 2025)
